The structures appear in SMILES notation.

What all share (format): in vivo
One data set addresses T1, COX-2 (Rattus norvegicus, UniProt P35355).
T1 construct: from tissue; host or cells: rat gastric mucosa (LPS-treated rats, in vivo dosing)
T1 sequence (P35355 18-604): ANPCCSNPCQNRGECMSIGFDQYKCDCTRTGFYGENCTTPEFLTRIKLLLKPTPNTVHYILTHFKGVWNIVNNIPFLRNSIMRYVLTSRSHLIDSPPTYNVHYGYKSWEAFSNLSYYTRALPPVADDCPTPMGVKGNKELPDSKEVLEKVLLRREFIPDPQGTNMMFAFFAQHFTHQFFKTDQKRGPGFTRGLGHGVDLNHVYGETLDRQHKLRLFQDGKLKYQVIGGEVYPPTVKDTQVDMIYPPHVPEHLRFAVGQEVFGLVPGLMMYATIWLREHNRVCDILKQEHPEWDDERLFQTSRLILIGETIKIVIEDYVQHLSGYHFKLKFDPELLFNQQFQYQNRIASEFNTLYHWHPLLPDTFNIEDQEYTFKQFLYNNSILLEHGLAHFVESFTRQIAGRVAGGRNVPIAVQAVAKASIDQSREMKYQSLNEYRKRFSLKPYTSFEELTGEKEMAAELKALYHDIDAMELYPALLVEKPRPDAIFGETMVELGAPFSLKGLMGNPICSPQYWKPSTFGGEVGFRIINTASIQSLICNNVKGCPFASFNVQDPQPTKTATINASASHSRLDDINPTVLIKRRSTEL
The data set is described as follows: COX-2 activity assay (PGE2 in gastric mucosa, EIA) in LPS-treated rats. Conditions: gavage, LPS 2.5 mg/kg-activated. As for the experimental part:
(2) COX-2 activity assay: The assay was similar to that of COX-1, except that LPS was injected intraperitoneally to rats at a dose of 2.5 mg/kg to activate COX-2 in this experiment. After administration, the content of PGE2 in gastric mucosa was measured using an enzyme-linked immunosorbent assay (EIA) kit (operated according to the instructions provided by the manufacturer) and converted to COX2 activity.
(§1) The percentage inhibition rate against COX-1 (FIG. 1a—gastric mucosa, FIG. 1b—myocardium) and COX-2 (FIG. 1c) and the IC50 values (Table 1a—gastric mucosa; Table 1b—myocardium) of each tested pharmaceutical compound were calculated from the above data.

For a further data set, the system named is mice (C57BL/6J). The data set can be described thus: Survival rate of mice irradiated by γ-rays. The conditions noted are these: 30th day after 8.75 Gy γ-rays, 16 mice per group; for number of survived mice: intermediates each 3 mg/kg/day gavage; for survival rate: compounds 6 mg/kg/day gavage, amifostine 400 mg/kg/day i.p. As for the experimental part:
In this experiment, 10-week-old male mice (C57BL/6J) weighing about 20 g were used as subjects, and 16 mice were taken as a group. The mice were divided into the following groups: 1. no γ-ray+no drug; 2. γ-ray+no drug; 3. γ-ray+amifostine; 4. γ-ray+intermediate I+intermediate II; 5. γ-ray+compound a; 6. γ-ray+compound b; and 7. γ-ray+compound d. Firstly, each group of mice was administered with a protective agent, and the specific amounts were as follows: compound a, b and d: 6 mg/kg/day (8.1 μM), amifostine: 400 mg/kg/day (1.5 mM), intermediate I+Intermediate II: each 3 mg/kg/day (8.1 μM). Except that amifostine was intraperitoneally injected (30 minutes before irradiation, amifostine was administered), the other protective agents were administered by gavage. 12 hours after administration, systemic irradiation was performed using cobalt 60γ-rays at a dose of 8.75Gy and a dose rate of 0.35 Gy/min for 25 minutes, with the radiation source 80 cm away from the mice. The mice were irradiated once, and continuously administered with drugs once daily for 10 days after irradiation. The number of survival mice was recorded. The percentage obtained by dividing the number of survival mice by the total number of mice in the experimental group (16 mice) is survival rate of mice, and the results are summarized in FIG. 7. […] It is noteworthy that in the experimental group using intermediate I+intermediate II, only one mouse is survived.

A further data set concerns the target T2, COX-1 in gastric mucosa (Rattus norvegicus, UniProt Q63921).
T2 construct: from tissue; host or cells: rat gastric mucosa (in vivo dosing, tissue homogenate supernatant)
T2 sequence (Q63921 27-602): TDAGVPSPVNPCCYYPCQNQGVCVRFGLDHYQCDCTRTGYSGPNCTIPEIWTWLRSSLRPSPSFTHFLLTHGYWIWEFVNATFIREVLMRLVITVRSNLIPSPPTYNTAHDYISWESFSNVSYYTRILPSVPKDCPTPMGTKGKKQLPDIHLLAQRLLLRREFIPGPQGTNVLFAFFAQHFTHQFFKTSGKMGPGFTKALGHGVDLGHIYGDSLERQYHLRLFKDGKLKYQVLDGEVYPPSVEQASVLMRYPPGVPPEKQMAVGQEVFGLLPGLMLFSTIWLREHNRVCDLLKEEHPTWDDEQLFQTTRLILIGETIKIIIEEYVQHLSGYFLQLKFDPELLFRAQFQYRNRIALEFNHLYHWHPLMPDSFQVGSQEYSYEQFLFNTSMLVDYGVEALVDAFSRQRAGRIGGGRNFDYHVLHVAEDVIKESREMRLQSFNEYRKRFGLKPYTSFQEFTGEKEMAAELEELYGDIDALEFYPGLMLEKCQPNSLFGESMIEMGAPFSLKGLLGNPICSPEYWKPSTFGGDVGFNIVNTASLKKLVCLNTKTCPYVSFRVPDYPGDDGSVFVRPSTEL
The data set can be described thus: COX-1 activity assay, gastric mucosa (thromboxane B2 EIA) after oral dosing of A23187-treated rats. Conditions: for reduction of inhibition against COX-1 in gastric mucosal tissue compared with intermediate I: gavage 1, 3, 9 mg/kg/day, intermediate I 0.5 mg/kg, 6 h after dosing; for effect of inhibiting COX-1 in gastric mucosa: gavage, A23187-activated. On the procedure:
(1) COX-1 activity assay: 2 hours after intraperitoneal injection of calcium ionophore A23187 (50 mg/kg) to rats, each of the compounds a, b, c, d, e and f was orally administered (gavage) to three rats at a dose of 1, 3 and 9 mg/kg/day, respectively; the intermediate I was orally administered as a control drug to three rats at a dose of 0.5 mg/kg; and additional three rats were only administered with COX-1 activator, the calcium ionophore A23187, and were not administered with the compounds of the present invention. 6 hours after the compound of the present invention was administered, the animals were sacrificed, gastric mucosal tissue and myocardial tissue were collected, homogenized, and subjected to high-speed centrifugation (12,000 rpm), and the supernatant was collected for use. The amount of thromboxane B2 was measured using an enzyme-linked immunosorbent assay (EIA) kit (operated in accordance with the instructions provided by the manufacturer) and converted to COX1 activity.
as §1

In another data set the test system is gastric mucosa. The data set is described as follows: Ulcer induction in rats after gavage (lesions of the gastric mucosa). The conditions noted are these: for prevalence of ulcer / Ulcer index: gavage three times; for Ulcer index: Dose 90 μM/kg, 12 hours after last gavage; for ulcer at high concentration: gavage, high concentration (90 μM).

As for `COC1=C(OC)C(=O)C(CCCCCCCCCCOC(=O)Cc2c(C)n(C(=O)c3ccc(Cl)cc3)c3cc(OC)ccc23)=C(C)C1=O` [compound a], the “inhibition against COX-2” value on COX-2 is given as “significantly enhanced”. In the data set with mice (C57BL/6J), the “number of survived mice” value is 10 mice and the survival rate is reported as 62.5%. Also, on COX-1 in gastric mucosa, the “reduction of inhibition against COX-1 in gastric mucosal tissue compared with intermediate I” value is reported as approximately 700 fold and the “effect of inhibiting COX-1 in gastric mucosa” value is recorded as “almost lose the effect of inhibiting COX-1 in gastric mucosa”. The prevalence of ulcer in the data set with gastric mucosa (10 μM) was 0/6. Besides, the prevalence of ulcer in the data set on gastric mucosa (30 μM) is given as 0/6. For the same compound, the prevalence of ulcer with gastric mucosa (90 μM) is 1/6. Also, in the data set on gastric mucosa, the Ulcer index is 3.3 ± 0.12 and the “ulcer at high concentration” value is recorded as “only one rat has light ulcer”.

Regarding `COc1ccc2c(CC(=O)OCCCCCCCCCCc3c(C)c(O)c(OC)c(OC)c3O)c(C)n(C(=O)c3ccc(Cl)cc3)c2c1` [compound b], the “inhibition against COX-2” value against COX-2 is listed as “significantly enhanced”. Besides, in the data set with mice (C57BL/6J), the “number of survived mice” value is 12 mice and the survival rate was determined as 75%. Moreover, at COX-1 in gastric mucosa, the “reduction of inhibition against COX-1 in gastric mucosal tissue compared with intermediate I” value is approximately 700 fold and the “effect of inhibiting COX-1 in gastric mucosa” value was “almost lose the effect of inhibiting COX-1 in gastric mucosa”. The prevalence of ulcer with gastric mucosa (10 μM) is given as 0/6. In addition, in the data set with gastric mucosa (30 μM), the prevalence of ulcer is 0/6. Also, the prevalence of ulcer with gastric mucosa (90 μM) is reported as 0/6. Further, in the data set on gastric mucosa, the Ulcer index was determined as 0 and the “ulcer at high concentration” value is given as “does not result in ulcer”.

Source of the values: patent US10494341B2, “Compound containing indoleacetic acid core structure and use thereof” (Beijing An Jian Xi Bio-Medical Technology Co., Ltd., priority 2015, dated 2019).
